Reference: patent US8124793B2, “Derivatives of ethylene methanedisulfonate as cancer chemotherapeutic agents” (priority 2007, dated 2012)

How the values were obtained:
Assay type in all cases: cell-based
CCRF-CEM = test: NCI screen, growth of human tumor cells: Leukemia CCRF-CEM; settings: CCRF-CEM (Leukemia), 10^−4 molar
In short: (§1)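 Under the NCI protocol, every compound is profiled with sixty or more data points. Each point ties a cancer type and a molar screening concentration to a percent growth value.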

K562 = test: NCI screen, growth of human tumor cells: Leukemia K562; settings: K562 (Leukemia), 10^−4 molar
In short: as §1

MOLT-4 = test: NCI screen, growth of human tumor cells: Leukemia MOLT-4; settings: MOLT-4 (Leukemia), 10^−4 molar
In short: as §1

RPMI-8226 = test: NCI screen, growth of human tumor cells: Leukemia RPMI-8226; settings: RPMI-8226 (Leukemia), 10^−4 molar
In short: as §1

SR = test: NCI screen, growth of human tumor cells: Leukemia SR; settings: SR (Leukemia), 10^−4 molar
In short: as §1

HOP-62 = test: NCI screen, growth of human tumor cells: Non-Small Cell Lung HOP-62; settings: HOP-62 (Non-Small Cell Lung), 10^−4 molar
In short: as §1

HOP-18 = test: NCI screen, growth of human tumor cells: Non-Small Cell Lung HOP-18
In short: as §1

HOP-92 = test: NCI screen, growth of human tumor cells: Non-Small Cell Lung HOP-92
In short: as §1

NCI-H460 = test: NCI screen, growth of human tumor cells: Non-Small Cell Lung NCI-H460; settings: NCI-H460 (Non-Small Cell Lung), 10^−4 molar
In short: as §1

NCI-H23 = test: NCI screen, growth of human tumor cells: Non-Small Cell Lung NCI-H23; settings: NCI-H23 (Non-Small Cell Lung), 10^−4 molar
In short: as §1

HCT-116 = test: NCI screen, growth of human tumor cells: Colon Cancer HCT-116; settings: HCT-116 (Colon Cancer), 10^−4 molar
In short: as §1

HCT-15 = test: NCI screen, growth of human tumor cells: Colon Cancer HCT-15; settings: HCT-15 (Colon Cancer), 10^−4 molar
In short: as §1

SF-295 = test: NCI screen, growth of human tumor cells: CNS Cancer SF-295; settings: SF-295 (CNS Cancer), 10^−4 molar
In short: as §1

U-251 = test: NCI screen, growth of human tumor cells: CNS Cancer U-251; settings: U-251 (CNS Cancer), 10^−4 molar
In short: as §1

LOXIMVI = test: NCI screen, growth of human tumor cells: Melanoma LOXIMVI; settings: LOXIMVI (Melanoma), 10^−4 molar
In short: as §1

M14 = test: NCI screen, growth of human tumor cells: Melanoma M14; settings: M14 (Melanoma), 10^−4 molar
In short: as §1

SK-MEL-5 = test: NCI screen, growth of human tumor cells: Melanoma SK-MEL-5; settings: SK-MEL-5 (Melanoma), 10^−4 molar
In short: as §1

UACC-257 = test: NCI screen, growth of human tumor cells: Melanoma UACC-257; settings: UACC-257 (Melanoma), 10^−4 molar
In short: as §1

OVCAR-8 = test: NCI screen, growth of human tumor cells: Ovarian Cancer OVCAR-8; settings: OVCAR-8 (Ovarian Cancer), 10^−4 molar
In short: as §1

786-0 = test: NCI screen, growth of human tumor cells: Renal Cancer 786-0; settings: 786-0 (Renal Cancer), 10^−4 molar
In short: as §1

SN12C = test: NCI screen, growth of human tumor cells: Renal Cancer SN12C; settings: SN12C (Renal Cancer), 10^−4 molar
In short: as §1

CAKI-1 = test: NCI screen, growth of human tumor cells: Renal Cancer CAKI-1; settings: CAKI-1 (Renal Cancer), 10^−4 molar
In short: as §1

MCF 7 = test: NCI screen, growth of human tumor cells: Breast Cancer MCF 7; settings: MCF 7 (Breast Cancer), 10^−4 molar
In short: as §1

MCF7/ADR-RES = test: NCI screen, growth of human tumor cells: Breast Cancer MCF7/ADR-RES; settings: MCF7/ADR-RES (Breast Cancer), 10^−4 molar
In short: as §1

MDA-MB-231/ATCC = test: NCI screen, growth of human tumor cells: Breast Cancer MDA-MB-231/ATCC; settings: MDA-MB-231/ATCC (Breast Cancer), 10^−4 molar
In short: as §1

MDA-MB-435 = test: NCI screen, growth of human tumor cells: Breast Cancer MDA-MB-435; settings: MDA-MB-435 (Breast Cancer), 10^−4 molar
In short: as §1

MDA-N = test: NCI screen, growth of human tumor cells: Breast Cancer MDA-N; settings: 10^−4 molar
Description: (§2) In the NCI screening process, each compound was tested and described by a minimum of 60 data points. The test data include, but are not limited to the type of cancer, the molar concentration used in the screen, and the percent growth of the cancer. In some cases, NMR and elemental analysis were used for structural assignment.

human cancer cells = test: NCI screen summary over the cancers tested (negative growth of human cancer cells); settings: 10^−4 M conc.; cancers with negative growth / cancers tested
Description: as §2
The derivatives in the tables are grouped using the same category as in the tables 1-6.

RL = test: NCI screen, growth of human tumor cells: Lymphoma RL
KD488 = test: NCI screen, growth of human tumor cells: Lymphoma KD488
AS283 = test: NCI screen, growth of human tumor cells: Lymphoma AS283
SU-DAL-7 = test: NCI screen, growth of human tumor cells: Lymphoma SU-DAL-7
PA682 = test: NCI screen, growth of human tumor cells: Lymphoma PA682

O=S1(=O)OCCOS(=O)(=O)C1Cc1nc2ccccc2[nH]1 [NSC 679042, ethylene 2-benzimidazolyl-1,1-ethanedisulfonate]
percent of growth of human tumor cells (CCRF-CEM): 15% | percent of growth of human tumor cells (K562): 14% | percent of growth of human tumor cells (MOLT-4): −3% | percent of growth of human tumor cells (RPMI-8226): −42% | percent of growth of human tumor cells (SR): 12% | percent of growth of human tumor cells (HOP-62): 9% | % Growth (HOP-18; HOP-18, 10^−4 molar): 18% | % Growth (HOP-18; HOP-18, 10^−5 molar): 41% | % Growth (HOP-18; HOP-18, 10^−6 molar): 29% | % Growth (HOP-18; HOP-18, 10^−7 molar): 51% | % Growth (HOP-18; HOP-18, 10^−8 molar): 58% | % Growth (HOP-92; HOP-92, 10^−4 molar): 18% | % Growth (HOP-92; HOP-92, 10^−5 molar): 41% | % Growth (HOP-92; HOP-92, 10^−6 molar): 29% | % Growth (HOP-92; HOP-92, 10^−7 molar): 51% | % Growth (HOP-92; HOP-92, 10^−8 molar): 56% | percent of growth of human tumor cells (NCI-H460): 14% | percent of growth of human tumor cells (NCI-H23): 16% | percent of growth of human tumor cells (HCT-116): −31% | percent of growth of human tumor cells (HCT-15): 4% | percent of growth of human tumor cells (SF-295): 0% | percent of growth of human tumor cells (U-251): 21% | percent of growth of human tumor cells (LOXIMVI): −50% | percent of growth of human tumor cells (M14): 23% | percent of growth of human tumor cells (SK-MEL-5): −28% | percent of growth of human tumor cells (UACC-257): 12% | percent of growth of human tumor cells (OVCAR-8): −33% | percent of growth of human tumor cells (786-0): 22% | percent of growth of human tumor cells (SN12C): 8% | percent of growth of human tumor cells (CAKI-1): −2% | percent of growth of human tumor cells (MCF 7): 6% | percent of growth of human tumor cells (MCF7/ADR-RES): 15% | percent of growth of human tumor cells (MDA-MB-231/ATCC): 30% | percent of growth of human tumor cells (MDA-MB-435): 23% | percent of growth of human tumor cells (MDA-N): 3% | Percentage of cancers showing negative growth cancers tested (human cancer cells): 10^−4 M conc. = 12/32 = 38% | % Growth (RL; 10^−4 molar): −45% | % Growth (RL; 10^−5 molar): 41% | % Growth (KD488; KD488, 10^−4 molar): −39% | % Growth (KD488; KD488, 10^−5 molar): 39% | % Growth (AS283; AS283, 10^−4 molar): −25% | % Growth (AS283; AS283, 10^−5 molar): 15% | % Growth (AS283; AS283, 10^−6 molar): 58% | % Growth (AS283; AS283, 10^−7 molar): 54% | % Growth (SU-DAL-7; SU-DAL-7, 10^−4 molar): −42% | % Growth (SU-DAL-7; SU-DAL-7, 10^−5 molar): 29% | % Growth (SU-DAL-7; SU-DAL-7, 10^−6 molar): 57% | % Growth (PA682; PA682, 10^−4 molar): −34% | % Growth (PA682; PA682, 10^−5 molar): 18%
